# US20100087432A1, “PYRROLE DERIVATIVES HAVING CRTH2 RECEPTOR ANTAGONIST ACTIVITY” (priority 2004, published 2010)
# Assays:
# [1] = target: T1, human CRTh2 (Homo sapiens, UniProt Q9Y5Y4); test: Filtration binding assay ([3H]-PGD2 competition on CHO.K1-CRTh2 membranes); conditions: [3H]-PGD2 2.5 nM, Cheng-Prussoff
# T1 sequence (Q9Y5Y4 1-395): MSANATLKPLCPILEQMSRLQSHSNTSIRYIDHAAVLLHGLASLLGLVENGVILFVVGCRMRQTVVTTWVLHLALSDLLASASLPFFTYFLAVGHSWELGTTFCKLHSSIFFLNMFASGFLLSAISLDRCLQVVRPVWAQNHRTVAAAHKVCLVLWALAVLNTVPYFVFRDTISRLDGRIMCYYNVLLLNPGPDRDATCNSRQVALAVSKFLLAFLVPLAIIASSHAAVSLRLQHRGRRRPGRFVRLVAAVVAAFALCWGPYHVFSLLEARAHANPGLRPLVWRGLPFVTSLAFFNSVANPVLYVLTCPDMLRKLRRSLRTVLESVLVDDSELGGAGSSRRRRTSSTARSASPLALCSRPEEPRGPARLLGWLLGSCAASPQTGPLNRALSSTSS
# Procedure: The binding of CRTh2 antagonists is determined using membranes prepared from human CRTh2-expressing Chinese Hamster Ovary cells (CHO.K1-CRTh2). To produce cell membranes CHO.K1-CRTh2 cells cultured in roller bottles are harvested using cell dissociation buffer (Invitrogen). The cells are pelleted by centrifugation (167 g, 5 min). The cell pellet is incubated in hypotonic buffer (15 mM Tris-OH, 2 mM MgCl2, 0.3 mM EDTA, 1 mM EGTA, 1×Complete™ tablet) at 4° C. for 30 minutes. At 4° C. cells are homogenized using a Polytron® (IKA Ultra Turrax T25) for 5 bursts of 1 second. The homogenate is centrifuged (Beckman Optima TM TL Ultracentrifuge, 48000 g, 30 minutes at 4° C.). The supernatant is discarded and the membrane pellet re-suspended in homogenisation buffer (75 mM Tris-OH, 12.5 mM MgCl2, 0.3 mM EDTA, 1 mM EGTA, 250 mM Sucrose, 1×Complete™ tablet. Membrane preparations are aliquoted and stored at […]. The protein content is estimated using Bradford Protein Assay Dye (Bio Rad).
# The binding of [^3H]-PGD2 (157 Ci/mmol) to CHO.K1-CRTh2 membranes is determined in the absence (total binding) and presence (non-specific binding) of unlabelled PGD2 (1 μM). Subtraction of the cpm (counts per minute) of [^3H]-PGD2 binding in presence of excess unlabelled PGD2 from that observed in the absence of excess unlabelled PGD2 is defined as specific binding. Active CRTh2 antagonists are able to compete with [^3H]-PGD2 for binding to the CRTh2 receptor and are identified in a decrease in the number of cpm bound.
# The assay is performed in Greiner U-bottomed 96 well-plates, in a final volume of 100 μL per well. CHO.K1-CRTh2 membranes were diluted in assay buffer (10 mM HEPES-KOH (pH 7.4), 1 mM EDTA and 10 mM MnCl2) and 10 μg are added to each well [^3H]-PGD2 is diluted in assay buffer and added to each well at a final concentration of 2.5 nM. To determine non-specific binding, [^3H]-PGD2 binding to the CRTh2 receptor is competed with using unlabelled PGD2 at a final well concentration of 1 μM. The experiment is done in triplicate, with reagents added to the wells as follows: • 25 μL assay buffer for total binding or • 25 μL PGD2 to determine non-specific binding • 25 μL [^3H]PGD2 • […] • 25 μL test compound in DMSO/assay buffer
# The plates are incubated at room temperature on a shaker for 1 hour, and then harvested (Tomtec Harvester 9600) onto GF/C filter plates using wash buffer (10 mM HEPES-KOH, pH 7.4). The plate is dried for 2 hours, prior to addition of Micro-Scint 20™ (50 μL) and sealing with TopSeal-S™. Plates are then counted using a Packard Top Count instrument, Plates are then read on the Packard Topcount with the 3H Scintillation program (1 min./well).
# Ki (dissocation constant for the inhibition) values for the CRTh2 antagonists are reported. Ki values are determined using Sigma Plot™ software, using the Cheng-Prussoff equation.
# (§1) where S is the concentration of radioligand and Kd is the dissociation constant. CRTH2 cAMP Functional Assay Protocol
# [2] = target: T1, human CRTh2; test: CRTH2 cAMP functional assay in CHO.K1-CRTh2 cells; format: cell-based; conditions: inhibition of PGD2-mediated attenuation of forskolin-induced cAMP accumulation in CHO.K1-CRTh2 cells
# Procedure: as §1
# This assay is conducted in CHO.K1-CRTh2 cells. cAMP is generated in the cell by stimulating cells with 5 μM forskolin, an adenylate cyclase activator. PGD2 is added to activate the CRTh2 receptor which results in the attenuation of the forskolin-induced cAMP accumulation. Potential CRTh2 antagonists are tested for their ability to inhibit the PGD2− mediated attenuation of the forskolin-induced cAMP accumulation in CHO.K1-CRTh2 cells.
# For each concentration value on the dose-response curve, test compounds are prepared in assay stimulation buffer (HBSS, 5 mM HEPES, 10 μM IBMX ±0.1% human serum albumin) containing DMSO (3% vol/vol) and 5 μL/well is added to an assay plate (384 well white optiplate).
# CHO.K1-CRTh2 cultured in tissue culture flasks are washed with PBS and harvested with dissociation buffer. Cells are washed with PBS and re-suspended in stimulation buffer to a concentration of 0.4×10^6/mL and added to the assay plate (10 μL/well).
# The assay plate is incubated at room temperature on a shaker for 15 minutes.
# A mix of agonist (10 nM Prostaglandin D2) and 5 μM forskolin is prepared in assay stimulation buffer and added to the assay plate (5 μL/well).
# In addition, a cAMP standard is serially diluted in assay stimulation buffer and added to separate empty wells on the assay plate (20 μL/well). The cAMP standard allows for the quantification of cAMP generated in CHO.K1-CRTH2 cells.
# The assay plate is incubated at room temperature on a shaker for 60 minutes.
# Cell lysis buffer (Lysis buffer: Milli-Q H2O, 5 mM HEPES, 0.3% Tween-20, 0.1% human serum albumin) is added to a bead mix (containing Alphascreen™ anti-cAMP acceptor beads 0.06 units/μL, Alphascreen™ streptavidin-coated donor beads 0.06 units/μL, biotinylated cAMP 0.06 units/μL, 10 μM IBMX) is prepared under darkened conditions 60 minutes prior to addition to the assay plate. The resulting lysis mix is added to all wells of the assay plate (40 μL/well).
# The assay plate is sealed with Topseal-S™ and incubated in the dark at room temperature on a shaker for 45 minutes. The plate is then counted using a Packard Fusion™ instrument.
# The resulting counts per minute are converted to nM cAMP by using the prepared cAMP standard curve. IC50 values (concentration of CRTh2 antagonist required to inhibit 50% of the PGD2-mediated attenuation of forskolin-induced cAMP accumulation in CHO.K1-CRTh2 cells) are then determined using Prism™ software.
SMILES,Ki [1] [nM],IC50 [2] [nM]
"N#Cc1cn(CC(=O)O)cc1-c1cc(C(F)(F)F)cc(Cl)c1F [Example 25, [3-(3-Chloro-2-fluoro-5-trifluoromethyl-phenyl) -4-cyano-pyrrol-1-yl]-acetic acid]",40,25
"N#Cc1cn(CC(=O)O)cc1-c1cc(C(F)(F)F)ccc1Cl [Example 17, [3-(2-Chloro-5-trifluoromethyl-phenyl)-4-cyano-pyrrol-1-yl]-acetic acid]",89,161
"CCCCNS(=O)(=O)c1cc(-c2cn(CC(=O)O)cc2C#N)cc(C(F)(F)F)c1 [Example 45, [3-(3-butylsulfamoyl-5-trifluoromethyl-phenyl)-4-cyano-pyrrol-1-yl]-acetic acid]",6,16
"N#Cc1cn(CC(=O)O)cc1-c1cc(C(F)(F)F)ccc1C(F)(F)F [Example 21, [3-(2,5-Bis-trifluoromethyl-phenyl)-4-cyano-pyrrol-1-yl]-acetic acid]",96,147
"CN(C)S(=O)(=O)c1cc(-c2cn(CC(=O)O)cc2C#N)cc(C(F)(F)F)c1 [Example 64, [3-Cyano-4-(3-Dimethylsulfamoyl-5-Trifluoromethyl-Phenyl)-Pyrrol-1-yl]-Acetic Acid]",42,14
"N#Cc1cn(CC(=O)O)cc1-c1cccc(Cl)c1 [Example 8, [3-(3-Chloro-phenyl)-4-cyano-pyrrol-1-yl]-acetic acid]",163,255
"N#Cc1cn(CC(=O)O)cc1-c1cc(Cl)ccc1Cl [Example 15, [3-Cyano-4-(2,5-dichloro-phenyl)-pyrrol-1-yl]-acetic acid]",144,282

# Continued by falling Ki [1], values first:
Ki [1] [nM],IC50 [2] [nM],SMILES
244,846,N#Cc1cn(CC(=O)O)cc1-c1cccc2c1OC(F)(F)O2 [Example 3]
172,69,"N#Cc1cn(CC(=O)O)cc1-c1cccc(C(F)(F)F)c1 [Example 12, [3-Cyano-4-(3-trifluoromethyl-phenyl)-pyrrol-1-yl]-acetic acid]"
34,57,"N#Cc1cn(CC(=O)O)cc1-c1cc(Cl)cc(Cl)c1 [Example 2, [3-Cyano-4-(3,5-Dichloro-Phenyl)-Pyrrol-1-yl]-Acetic Acid]"
10,28,"N#Cc1cn(CC(=O)O)cc1-c1cc(C(F)(F)F)cc(C(F)(F)F)c1 [Example 1, [3-(3,5-Bis-Trifluoromethyl-Phenyl)-4-Cyano-Pyrrol-1-yl]-Acetic Acid]"
6,17,"N#Cc1cn(CC(=O)O)cc1-c1cc(C(F)(F)F)cc(S(=O)(=O)N2CCCC2)c1 [Example 42, {3-cyano-4-[3-(pyrrolidine-1-sulfonyl)-5-trifluoromethyl-phenyl]-pyrrol-1-yl}-acetic acid]"
4,9,"N#Cc1cn(CC(=O)O)cc1-c1cc(C(F)(F)F)cc(S(=O)(=O)NC2CCC2)c1 [Example 50, [3-cyano-4-(3-cyclobutylsulfamoyl-5-trifluoromethyl-phenyl)-pyrrol-1-yl]-acetic acid]"
2,46,"N#Cc1cn(CC(=O)O)cc1-c1cc(Cl)cc(S(=O)(=O)N2CCCCC2)c1 [Example 53, {3-[3-Chloro-5-(Piperidine-1-Sulfonyl)-Phenyl]-4-Cyano-Pyrrol-1-yl}-Acetic Acid]"
2,12,"N#Cc1cn(CC(=O)O)cc1-c1cc(C(F)(F)F)cc(S(=O)(=O)N2CCCCC2)c1 [Example 40, {3-Cyano-4-[3-(Piperidine-1-Sulfonyl)-5-Trifluoromethyl-Phenyl]Pyrrol-1-yl}-Acetic Acid]"
